The source of these data is patent US20240209028A1, “CNP COMPOUNDS” (priority 2022, published 2024).

Like-named read-outs stand apart in the source and are kept apart here. Starred links: 1 amine or outer side, 2 acyl side, 3 side chain; linkers in the order of their positions; H or OH if unused. Positions of bridges follow the written chain, without caps; N, C: chain ends. Residues, ends and D or L forms follow the SMILES beside them. *: point of attachment. C18 diacid = O=C(O)CCCCCCCCCCCCCCCCC(=O)*; γGlu = O=C(O)[C@H](CCC(=O)[*:2])N[*:1]; AEEA = NCCOCCOCC(=O)O

A short description of series [1]: PK after i.v. and s.c. administration to Göttingen minipig. The settings on record: female, in vivo; for clearance: read-out: CL (ml/hr/kg), Intravenous PK (converted). The method, boiled down:
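Female Göttingen minipigs (6-12 months, ~22 kg) and domestic LYD pigs (4-5 months, ~80 kg) given CNP compounds i.v. (30-60 or 15-43 nmol/kg) or s.c. neck (55-62 or 20-30 nmol/kg) via catheter/pen. EDTA plasma sampled up to 14 days, CNP and cGMP by LC-MS; non-compartmental PK, F from dose-normalized AUC s.c./i.v.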

Another series deals with neprilysin (NEP) (Homo sapiens, UniProt P08473). Put plainly: In vitro neprilysin stability. To be noted: recombinant human neprilysin (rhNEP), pH 7.4.
Where [2] appears, read: iv, Göttingen Minipig, i.v., read-out: T½, iv (converted).
The mark [3] stands for this setting: sc, Göttingen Minipig, s.c. bioavailability, read-out: F (%), Subcutaneous PK.
Where [4] appears, read: sc, Göttingen Minipig, s.c., read-out: T½, sc (converted).

Sequence of neprilysin (NEP) (P08473 whole entry): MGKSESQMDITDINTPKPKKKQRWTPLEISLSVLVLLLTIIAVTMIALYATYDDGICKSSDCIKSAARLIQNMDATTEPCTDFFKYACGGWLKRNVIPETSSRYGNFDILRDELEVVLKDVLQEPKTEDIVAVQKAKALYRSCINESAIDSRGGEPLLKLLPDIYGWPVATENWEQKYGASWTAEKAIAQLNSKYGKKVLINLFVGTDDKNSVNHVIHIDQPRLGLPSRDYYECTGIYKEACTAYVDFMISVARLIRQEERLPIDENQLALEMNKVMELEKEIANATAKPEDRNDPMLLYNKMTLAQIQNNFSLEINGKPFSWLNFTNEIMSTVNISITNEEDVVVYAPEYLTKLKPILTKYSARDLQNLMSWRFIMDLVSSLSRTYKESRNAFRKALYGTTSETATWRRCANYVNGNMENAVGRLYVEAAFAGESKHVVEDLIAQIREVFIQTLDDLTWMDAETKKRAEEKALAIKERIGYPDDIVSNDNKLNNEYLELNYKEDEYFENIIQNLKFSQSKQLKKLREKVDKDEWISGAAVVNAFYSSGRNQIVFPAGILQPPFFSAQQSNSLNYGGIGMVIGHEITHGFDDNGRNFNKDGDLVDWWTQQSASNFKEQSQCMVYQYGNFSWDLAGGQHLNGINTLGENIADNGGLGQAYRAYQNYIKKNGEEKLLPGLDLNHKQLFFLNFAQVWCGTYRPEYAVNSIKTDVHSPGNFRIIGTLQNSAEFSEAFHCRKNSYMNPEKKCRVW
Description for neprilysin (NEP): Therefore, an in vitro neprilysin stability assay was set up to test the neprilysin mediated degradation of selected CNP compounds.
Procedure: In short, the assay buffer consisted of PBS-buffer (pH 7.4, ThermoFisher Scientific) with a final concentration of 0.005% v/v tween 20 (Sigma-Aldrich). Recombinant human neprilysin (rhNEP; R&D Systems) and the CNP compounds were dissolved in assay buffer. Native CNP22 (0065, Chem. 1) was included as positive control on each day of incubation. Initially, the CNP compound (the final concentration was 1000 nM) was pre-incubated in assay buffer for 10 min at 37° C. The assay was started by adding either rhNEP (final concentration was 2 μg protein per mL) or assay buffer (adsorption experiment) and the incubation was conducted at 37° C. […] The mixture was centrifuged at 13000 rpm at 4° C. for 20 minutes. After centrifugation, one volume of supernatant was mixed with one volume of Milli-Q water.
Analysis by LCMS: The mixture was analysed by LCMS using an Acquity UPLC Peptide CSH C18 analytical column from Waters (130 Å, 1.7 μm, 1*50 mm) operated at 60° C. A gradient elution was conducted with a Nexera UHPLC system (Shimadzu) using mobile phase A (consisting of Milli-Q water with 0.1% formic acid) and mobile phase B (consisting of acetonitrile with 0.1% formic acid). The flow was 0.3 ml/min. A zenoTOF 7600 mass spectrometer (Sciex) was used as detector and operated in positive electrospray ionisation mode. Data was recorded in full scan mode (m/z 300-1700).
Calibration curves were prepared in assay buffer and treated as study samples. These samples were used for calculating the concentration of the relevant CNP compound in the in vitro samples. Quality control samples were included. For at least 75% of the standards and QCs, the deviation between nominal and calculated concentration was below 20%.
All incubations were conducted in duplicate. Data was reported as percent remaining at 90 min (based on calculated concentrations) compared to the average concentration in the 0.5-minute time point samples.

Consider `CC[C@H](C)[C@@H]1NC(=O)[C@H](CCCNC(=N)N)NC(=O)[C@H](CCC(=O)O)NC(=O)[C@H](CC(C)C)NC(=O)[C@H](CCCCN)NC(=O)[C@H](CC(C)C)NC(=O)CNC(=O)[C@H](Cc2ccccc2)NC(=O)[C@@H](NC(=O)CNC(=O)[C@H](CCCCN)NC(=O)[C@H](CO)NC(=O)[C@H](CC(C)C)NC(=O)CNC(=O)[C@H](CCCCN)NC(=O)[C@H](CCCCN)NC(=O)[C@H](CCC(N)=O)NC(=O)[C@H](C)NC(=O)CNC(=O)[C@H](CCCCN)NC(=O)[C@H](Cc2ccc(O)cc2)NC(=O)[C@H](CCCCN)NC(=O)[C@H](CCCNC(=N)N)NC(=O)[C@H](C)NC(=O)COCCOCCNC(=O)COCCOCCNC(=O)CC[C@H](NC(=O)CCCCCCCCCCCCCCCCC(=O)O)C(=O)O)CSSC[C@@H](C(=O)O)NC(=O)CNC(=O)[C@H](CC(C)C)NC(=O)CNC(=O)[C@H](CO)NC(=O)[C@H](CC(C)C)NC(=O)[C@H](CO)NC(=O)CNC1=O` [compound 0776] ({C18 diacid-γGlu-AEEA-AEEA}-ARKYKGAQKKGLSKGCFGLKLERIGSLSGLGC-OH; disulfide 16-32), for which, in series [1] (Göttingen minipig and domestic LYD pig, minipig, sc), the bioavailability fell in the range of 7 to 13%.
For `CC[C@H](C)[C@@H]1NC(=O)[C@H](CCCNC(=N)N)NC(=O)[C@H](CC(=O)O)NC(=O)[C@H](CC(C)C)NC(=O)[C@@H]2CCCN2C(=O)[C@H](CC(C)C)NC(=O)CNC(=O)[C@H](Cc2ccccc2)NC(=O)[C@@H](NC(=O)CNC(=O)[C@H](CCC(N)=O)NC(=O)[C@H](CO)NC(=O)CNC(=O)CNC(=O)[C@H](CCCCN)NC(=O)[C@H](CCCCN)NC(=O)[C@H](CCC(N)=O)NC(=O)[C@H](C)NC(=O)CNC(=O)[C@H](CCCCN)NC(=O)[C@H](Cc2ccc(O)cc2)NC(=O)COCCOCCNC(=O)COCCOCCNC(=O)COCCOCCNC(=O)COCCOCCNC(=O)CC[C@H](NC(=O)CC[C@H](NC(=O)CCCCCCCCCCCCCCCCC(=O)O)C(=O)O)C(=O)O)CSSC[C@@H](C(=O)O)NC(=O)CNC(=O)[C@H](CC(C)C)NC(=O)CNC(=O)[C@H](CO)NC(=O)[C@H](CC(C)C)NC(=O)[C@H](CO)NC(=O)CNC1=O` [Compound 9435] ({C18 diacid-γGlu-γGlu-AEEA-AEEA-AEEA-AEEA}-YKGAQKKGGSQGCFGLPLDRIGSLSGLGC-OH; disulfide 13-29), on neprilysin (NEP), the fraction remaining at 1.5 h, 1000 nM came out at 93.2%. For the same compound, the clearance in series [1] (iv, Göttingen Minipig, i.v.) is 1.02 mL/h/kg. Besides, the figures for the half-life in series [1] (setting [2]) and in series [1] (setting [4]) were 77 h and 82 h, respectively. In series [1] (setting [3]), the bioavailability came out at 77%.
The corresponding values for `CC[C@H](C)[C@@H]1NC(=O)[C@H](CCCNC(=N)N)NC(=O)[C@H](CC(=O)O)NC(=O)[C@H](CC(C)C)NC(=O)[C@@H]2CCCN2C(=O)[C@H](CC(C)C)NC(=O)CNC(=O)[C@H](Cc2ccccc2)NC(=O)[C@@H](NC(=O)CNC(=O)[C@H](CCC(N)=O)NC(=O)[C@H](CO)NC(=O)[C@H](CC(C)C)NC(=O)CNC(=O)[C@H](CCCCN)NC(=O)[C@H](CCCCN)NC(=O)[C@H](CCC(N)=O)NC(=O)[C@H](C)NC(=O)CNC(=O)[C@H](CCCCN)NC(=O)[C@H](Cc2ccc(O)cc2)NC(=O)COCCOCCNC(=O)COCCOCCNC(=O)COCCOCCNC(=O)COCCOCCNC(=O)CC[C@H](NC(=O)CC[C@H](NC(=O)CC[C@H](NC(=O)CCCCCCCCCCCCCCCCC(=O)O)C(=O)O)C(=O)O)C(=O)O)CSSC[C@@H](C(=O)O)NC(=O)CNC(=O)[C@H](CC(C)C)NC(=O)CNC(=O)[C@H](CO)NC(=O)[C@H](CC(C)C)NC(=O)[C@H](CO)NC(=O)CNC1=O` [Compound 9480] ({C18 diacid-γGlu-γGlu-γGlu-AEEA-AEEA-AEEA-AEEA}-YKGAQKKGLSQGCFGLPLDRIGSLSGLGC-OH; disulfide 13-29) are 98.3%, 1.13 mL/h/kg, 74 h, 67 h and 87%.
For `CC[C@H](C)[C@@H]1NC(=O)[C@H](CCCNC(=N)N)NC(=O)[C@H](CC(=O)O)NC(=O)[C@H](CC(C)C)NC(=O)[C@@H]2CCCN2C(=O)[C@H](CC(C)C)NC(=O)CNC(=O)[C@H](Cc2ccccc2)NC(=O)[C@@H](NC(=O)CNC(=O)[C@H](CO)NC(=O)[C@H](CO)NC(=O)[C@H](CC(C)C)NC(=O)CNC(=O)[C@H](CCCCN)NC(=O)[C@H](CCCCN)NC(=O)[C@H](CCC(N)=O)NC(=O)[C@H](C)NC(=O)CNC(=O)[C@H](CCCCN)NC(=O)[C@H](Cc2ccc(O)cc2)NC(=O)[C@H](CCCCN)NC(=O)[C@H](CCCNC(=N)N)NC(=O)[C@H](C)NC(=O)[C@H](CCC(N)=O)NC(=O)[C@@H]2CCCN2C(=O)[C@H](Cc2c[nH]cn2)NC(=O)[C@H](CCC(=O)O)NC(=O)[C@H](CCC(N)=O)NC(=O)CC[C@H](NC(=O)CC[C@H](NC(=O)CC[C@H](NC(=O)CC[C@H](NC(=O)CC[C@H](NC(=O)CCCCCCCCCCCCCCCCC(=O)O)C(=O)O)C(=O)O)C(=O)O)C(=O)O)C(=O)O)CSSC[C@@H](C(=O)O)NC(=O)CNC(=O)[C@H](CC(C)C)NC(=O)CNC(=O)[C@H](CO)NC(=O)[C@H](CC(C)C)NC(=O)[C@H](CO)NC(=O)CNC1=O` [Compound 9482] ({C18 diacid-γGlu-γGlu-γGlu-γGlu-γGlu}-QEHPQARKYKGAQKKGLSSGCFGLPLDRIGSLSGLGC-OH; disulfide 21-37), in that order: 96.3%, 1.07 mL/h/kg, 89 h, 84 h and 89%.
The corresponding values for `CC[C@H](C)[C@@H]1NC(=O)[C@H](CCCNC(=N)N)NC(=O)[C@H](CC(=O)O)NC(=O)[C@H](CC(C)C)NC(=O)[C@@H]2CCCN2C(=O)[C@H](CC(C)C)NC(=O)CNC(=O)[C@H](Cc2ccccc2)NC(=O)[C@@H](NC(=O)CNC(=O)[C@H](CCC(N)=O)NC(=O)[C@H](CO)NC(=O)[C@H](CC(C)C)NC(=O)CNC(=O)[C@H](CCCCN)NC(=O)[C@H](CCCCN)NC(=O)[C@H](CCC(N)=O)NC(=O)[C@H](C)NC(=O)CNC(=O)[C@H](CCCCN)NC(=O)[C@H](Cc2ccc(O)cc2)NC(=O)[C@H](CCCCN)NC(=O)[C@H](CCCNC(=N)N)NC(=O)[C@H](C)NC(=O)COCCOCCNC(=O)COCCOCCNC(=O)COCCOCCNC(=O)COCCOCCNC(=O)CC[C@H](NC(=O)CC[C@H](NC(=O)CC[C@H](NC(=O)CC[C@H](NC(=O)CC[C@H](NC(=O)CCCCCCCCCCCCCCCCC(=O)O)C(=O)O)C(=O)O)C(=O)O)C(=O)O)C(=O)O)CSSC[C@@H](C(=O)O)NC(=O)CNC(=O)[C@H](CC(C)C)NC(=O)CNC(=O)[C@H](CO)NC(=O)[C@H](CC(C)C)NC(=O)[C@H](CO)NC(=O)CNC1=O` [Compound 9407] ({C18 diacid-γGlu-γGlu-γGlu-γGlu-γGlu-AEEA-AEEA-AEEA-AEEA}-ARKYKGAQKKGLSQGCFGLPLDRIGSLSGLGC-OH; disulfide 16-32) are 96.6%, 1.2 mL/h/kg, 82 h, 92 h and 86%.
